Assay results published in paper PMC2819846 (Mutation research, 2008).

Experiments:
Salmonella TA98 = assay: Salmonella plate-incorporation mutagenicity assay, strain TA98, with S9 mix; type: cell-based
Salmonella TA100 = assay: Salmonella plate-incorporation mutagenicity assay, strain TA100; type: cell-based
Salmonella TA104 = assay: Salmonella plate-incorporation mutagenicity assay, strain TA104, with S9 mix; type: cell-based
strain TA100 = type: cell-based, Salmonella; settings: TA100 liquid-suspension, 10 µg/ml
[1] = tested on: DNA from Salmonella TA100; assay: Stable DNA adducts by 32P-postlabeling in DNA of treated TA100; type: cell-based; settings: TA100, 10 µg/ml; DMSO 0.024 ± 0.000
[2] = tested on: DNA from Salmonella TA100; assay: Abasic sites by aldehydic-site assay in DNA of treated TA100; type: cell-based; settings: TA100, 10 µg/ml; DMSO 5.9 ± 0.33
Salmonella = settings: cited from earlier work
[3] = incubation with rat liver microsomes; cited from earlier work

`c1ccc2c(c1)ccc1ccc3sccc3c12` [P[3,4-b]T, Phenanthro[3,4,-b]thiophene] showed a Rev/plate (Salmonella TA98; TA98 +S9, Test 1, 2 µg/plate, zero-dose 33/40/39) of 81 rev/plate, a Rev/plate (Salmonella TA98; TA98 +S9, Test 1, 5 µg/plate, zero-dose 33/40/39) of 80 rev/plate and a Rev/plate (Salmonella TA98; TA98 +S9, Test 1, 10 µg/plate, zero-dose 33/40/39) of 62 rev/plate. It also gave a Rev/plate (Salmonella TA98; TA98 +S9, Test 1, 20 µg/plate, zero-dose 33/40/39) of 54 rev/plate, a Rev/plate (Salmonella TA98; TA98 +S9, Test 1, 40 µg/plate, zero-dose 33/40/39) of 60 rev/plate and a Rev/plate (Salmonella TA98; TA98 +S9, Test 1, 80 µg/plate, zero-dose 33/40/39) of 55 rev/plate. The Rev/plate (Salmonella TA98; TA98 +S9, Test 2, 0.05 µg/plate, zero-dose 43/41/30) was 30/40, the Rev/plate (Salmonella TA98; TA98 +S9, Test 2, 0.1 µg/plate, zero-dose 43/41/30) was 31/33 and the Rev/plate (Salmonella TA98; TA98 +S9, Test 2, 0.25 µg/plate, zero-dose 43/41/30) was 33/32. The Rev/plate (Salmonella TA98; TA98 +S9, Test 2, 0.5 µg/plate, zero-dose 43/41/30) was 58/34, the Rev/plate (Salmonella TA98; TA98 +S9, Test 3, 0.05 µg/plate, zero-dose 49/50/50) was 57/49 and the Rev/plate (Salmonella TA98; TA98 +S9, Test 3, 0.1 µg/plate, zero-dose 49/50/50) was 50/51. The Rev/plate (Salmonella TA98; TA98 +S9, Test 3, 0.25 µg/plate, zero-dose 49/50/50) was 40/63, the Rev/plate (Salmonella TA98; TA98 +S9, Test 3, 0.5 µg/plate, zero-dose 49/50/50) was 66/69 and the “Mutagenic potency, Revertants/µg ± S.E., TA98” value (Salmonella TA98; plate-incorporation, +S9) was 0.2 ± 0.2 rev/µg. The Rev/plate (Salmonella TA100; TA100 +S9, Test 2, 0.05 µg/plate, zero-dose 84/78/80) was 131/124, the Rev/plate (Salmonella TA100; TA100 +S9, Test 2, 0.1 µg/plate, zero-dose 84/78/80) was 120/128 and the Rev/plate (Salmonella TA100; TA100 +S9, Test 2, 0.25 µg/plate, zero-dose 84/78/80) was 235/243. For the same compound, the Rev/plate (Salmonella TA100; TA100 +S9, Test 2, 0.5 µg/plate, zero-dose 84/78/80) was 389/354, the Rev/plate (Salmonella TA100; TA100 +S9, Test 3, 0.05 µg/plate, zero-dose 127/118/125) was 151/163 and the Rev/plate (Salmonella TA100; TA100 +S9, Test 3, 0.1 µg/plate, zero-dose 127/118/125) was 187/201. For the same compound, the Rev/plate (Salmonella TA100; TA100 +S9, Test 3, 0.25 µg/plate, zero-dose 127/118/125) was 344/311, the Rev/plate (Salmonella TA100; TA100 +S9, Test 3, 0.5 µg/plate, zero-dose 127/118/125) was 450/508 and the Rev/plate (Salmonella TA100; TA100 +S9, Test 4, 0.05 µg/plate, zero-dose 112/140/115) was 144/123. The Rev/plate (Salmonella TA100; TA100 +S9, Test 4, 0.1 µg/plate, zero-dose 112/140/115) was 159/169, the Rev/plate (Salmonella TA100; TA100 +S9, Test 4, 0.25 µg/plate, zero-dose 112/140/115) was 216/227 and the Rev/plate (Salmonella TA100; TA100 +S9, Test 4, 0.5 µg/plate, zero-dose 112/140/115) was 333/364. The Rev/plate (Salmonella TA100; TA100 +S9, Test 5, 0.05 µg/plate, zero-dose 102/119/99) was 136/140, the Rev/plate (Salmonella TA100; TA100 +S9, Test 5, 0.1 µg/plate, zero-dose 102/119/99) was 175/132 and the Rev/plate (Salmonella TA100; TA100 +S9, Test 5, 0.25 µg/plate, zero-dose 102/119/99) was 237/166. For the same compound, the Rev/plate (Salmonella TA100; TA100 +S9, Test 5, 0.5 µg/plate, zero-dose 102/119/99) was 366/305, the “Mutagenic potency, Revertants/µg ± S.E., TA100” value (Salmonella TA100; plate-incorporation, +S9) was 550 ± 61 rev/µg and the “Mutagenicity call TA100” value (Salmonella TA100; plate-incorporation, +S9) was “(+) (Called mutagenic (+) based on showing reproducible, dose-related increases in rev/plate that reached or exceeded 2-fold relative to zero-dose controls)”. For the same compound, the Rev/plate (Salmonella TA104; TA104 +S9, Test 2, 0.5 µg/plate, zero-dose 276/260/270) was 335/385, the Rev/plate (Salmonella TA104; TA104 +S9, Test 2, 1 µg/plate, zero-dose 276/260/270) was 461/542 and the Rev/plate (Salmonella TA104; TA104 +S9, Test 2, 2 µg/plate, zero-dose 276/260/270) was 569/553. The Rev/plate (Salmonella TA104; TA104 +S9, Test 2, 5 µg/plate, zero-dose 276/260/270) was 582/601, the Rev/plate (Salmonella TA104; TA104 +S9, Test 3, 0.5 µg/plate, zero-dose 402/395/336) was 507/473 and the Rev/plate (Salmonella TA104; TA104 +S9, Test 3, 1 µg/plate, zero-dose 402/395/336) was 571/559. For the same compound, the Rev/plate (Salmonella TA104; TA104 +S9, Test 3, 2 µg/plate, zero-dose 402/395/336) was 604/630, the Rev/plate (Salmonella TA104; TA104 +S9, Test 3, 5 µg/plate, zero-dose 402/395/336) was 535/679 and the “Mutagenic potency, Revertants/µg ± S.E., TA104” value (Salmonella TA104; plate-incorporation, +S9) was 210 ± 84 rev/µg. The “Fold increase in mutant frequency relative to DMSO-treated cells” value (strain TA100) was 5.3 fold, the “Rev/10^6 survivors” value (strain TA100; DMSO 0.8) was 4.3 Rev/10^6 survivors and the Percent survival (strain TA100; DMSO 100) was 24%. The “Stable adducts/10^8 nucleotides ± S.E” value [1] was 0.090 ± 0.007 adducts/10^8 nucleotides, the “Abasic sites/10^5 nucleotides ± S.E” value [2] was 6.2 ± 0.26 sites/10^5 nucleotides and the “Reported Mutagenicity” value (Salmonella) was “mutagenic”. The “Major relatively nonpolar metabolite(s), share of the total metabolites” value [3] was 80–96%.
